Data taken from ChEMBL document CHEMBL6127124, “Structure-Activity Relationships and Discovery of (S)-5-(tert-Butyl)-11-(difluoromethoxy)-9-methoxy-2-oxo-1,2,5,6-tetrahydropyrido[2',1':2,3]imidazo[4,5-h]quinoline-3-carboxylic Acid (AB-161), a Novel Orally Available and Liver-Centric HBV RNA Destabilizer” (J Med Chem, 2024).

Assays:
[1] = Ratio of drug concentration in liver to plasma of Sprague-Dawley rat at 5 mg/kg, po measured for 24 hrs by LC-MS/MS analysis; assay type: ADME, organism-based; conditions: liver and plasma
[2] = test system: RNA; experiment: Destabilization of HBV RNA assessed as decrease in HBsAg production by cell-based assay; conditions: Hepatitis B virus
[3] = Chemical stability of compound in PBS assessed as compound remaining measured after 6 days by HPLC UV analysis; assay type: physicochemical; conditions: buffer, 144 h; time 6 day
[4] = molecular target: T1, CYP1A2 (Homo sapiens, UniProt P05177); experiment: Inhibition of CYP1A2 in human liver microsomes using phenacetin as substrate preincubated for 30 min followed by NADPH addition measured after 12 mins by LC-MS/MS analysis; assay type: ADME, Microsome; conditions: human, liver microsomes, probe phenacetin
T1 sequence (P05177 whole entry): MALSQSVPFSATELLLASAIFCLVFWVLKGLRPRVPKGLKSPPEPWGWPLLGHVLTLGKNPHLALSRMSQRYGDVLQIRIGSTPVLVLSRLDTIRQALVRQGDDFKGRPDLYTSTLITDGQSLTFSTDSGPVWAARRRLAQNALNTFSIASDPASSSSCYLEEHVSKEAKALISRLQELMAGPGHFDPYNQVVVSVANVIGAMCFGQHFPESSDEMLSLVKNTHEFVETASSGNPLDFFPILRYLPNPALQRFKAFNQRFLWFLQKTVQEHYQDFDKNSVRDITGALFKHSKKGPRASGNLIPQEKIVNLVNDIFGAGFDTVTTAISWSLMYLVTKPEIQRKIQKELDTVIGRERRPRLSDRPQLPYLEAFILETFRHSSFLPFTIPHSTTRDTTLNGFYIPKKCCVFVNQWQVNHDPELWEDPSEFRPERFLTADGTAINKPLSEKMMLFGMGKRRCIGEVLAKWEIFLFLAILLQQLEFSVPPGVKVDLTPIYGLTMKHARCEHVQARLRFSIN

[5] = molecular target: CYP2C9 (Homo sapiens, UniProt P11712); experiment: Inhibition of CYP2C9 in human liver microsomes using diclofenac as substrate preincubated for 30 min followed by NADPH addition measured after 12 mins by LC-MS/MS analysis; assay type: ADME, Microsome; conditions: human, liver microsomes, probe diclofenac
CYP2C9, sequence (P11712 whole entry): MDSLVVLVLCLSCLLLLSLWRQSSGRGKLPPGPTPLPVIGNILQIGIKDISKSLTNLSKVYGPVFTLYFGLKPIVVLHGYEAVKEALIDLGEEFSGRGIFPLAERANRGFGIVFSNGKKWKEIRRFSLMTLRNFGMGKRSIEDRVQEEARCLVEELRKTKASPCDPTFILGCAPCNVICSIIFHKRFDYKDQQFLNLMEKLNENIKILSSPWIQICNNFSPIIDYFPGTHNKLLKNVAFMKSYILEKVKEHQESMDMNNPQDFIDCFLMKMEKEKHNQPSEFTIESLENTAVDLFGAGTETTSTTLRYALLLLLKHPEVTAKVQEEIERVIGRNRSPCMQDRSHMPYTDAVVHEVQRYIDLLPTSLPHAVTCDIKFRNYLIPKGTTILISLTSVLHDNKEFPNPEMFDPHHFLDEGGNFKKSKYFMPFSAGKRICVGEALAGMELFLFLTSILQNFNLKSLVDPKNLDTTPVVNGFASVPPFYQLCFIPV

[6] = molecular target: T2, CYP3A4 (Homo sapiens, UniProt P08684); experiment: Inhibition of CYP3A4 in human liver microsomes using midazolam as substrate preincubated for 30 min followed by NADPH addition measured after 12 mins by LC-MS/MS analysis; assay type: ADME, Microsome; conditions: human, liver microsomes, probe midazolam
T2 sequence (P08684 whole entry): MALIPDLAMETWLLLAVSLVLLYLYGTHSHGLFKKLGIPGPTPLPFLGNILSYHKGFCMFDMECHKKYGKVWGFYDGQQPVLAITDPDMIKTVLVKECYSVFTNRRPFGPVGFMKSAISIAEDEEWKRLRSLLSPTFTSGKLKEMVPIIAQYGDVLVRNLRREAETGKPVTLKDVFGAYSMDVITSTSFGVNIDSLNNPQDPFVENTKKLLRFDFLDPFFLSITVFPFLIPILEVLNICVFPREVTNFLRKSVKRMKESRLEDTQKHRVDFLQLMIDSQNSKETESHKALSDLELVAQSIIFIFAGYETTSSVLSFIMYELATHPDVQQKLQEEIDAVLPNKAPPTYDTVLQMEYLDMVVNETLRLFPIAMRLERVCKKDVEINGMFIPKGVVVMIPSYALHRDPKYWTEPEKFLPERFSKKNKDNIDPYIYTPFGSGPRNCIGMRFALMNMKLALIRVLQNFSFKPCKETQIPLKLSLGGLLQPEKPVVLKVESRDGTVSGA

[7] = molecular target: T2, CYP3A4; experiment: Inhibition of CYP3A4 in human liver microsomes using testosterone as substrate preincubated for 30 min followed by NADPH addition measured after 12 mins by LC-MS/MS analysis; assay type: ADME, Microsome; conditions: human, liver microsomes, probe testosterone
[8] = Drug concentration in Sprague-Dawley rat liver at 10 mg/kg, po measured for 24 hrs by LC-MS/MS analysis; assay type: ADME, organism-based; conditions: read-out: Ct
[9] = Ratio of drug concentration in liver to plasma of Sprague-Dawley rat at 10 mg/kg, po measured for 24 hrs by LC-MS/MS analysis; assay type: ADME, organism-based; conditions: liver and plasma
[10] = Free Cmax in Beagle dog at 5 mg/kg, po qd measured after 91 days; assay type: ADME, organism-based, Canis lupus familiaris; conditions: in vivo, 2184 h, time 91 day
[11] = Free AUC (0 to 24 hrs) in Beagle dog at 5 mg/kg, po qd measured after 91 days; assay type: ADME, organism-based, Canis lupus familiaris; conditions: in vivo, 2184 h, time 91 day
[12] = Total Cmax in Beagle dog at 15 mg/kg, po qd measured after 91 days; assay type: ADME, organism-based, Canis lupus familiaris; conditions: in vivo, time 91 day
[13] = Free Cmax in Beagle dog at 15 mg/kg, po qd measured after 91 days; assay type: ADME, organism-based, Canis lupus familiaris; conditions: in vivo, 2184 h, time 91 day
[14] = Free AUC (0 to 24 hrs) in Beagle dog at 15 mg/kg, po qd measured after 91 days; assay type: ADME, organism-based, Canis lupus familiaris; conditions: in vivo, 2184 h, time 91 day
[15] = Total AUC (0 to 24 hrs) in Beagle dog at 45 mg/kg, po qd measured after 91 days; assay type: ADME, organism-based, Canis lupus familiaris; conditions: in vivo, time 91 day
[16] = Total Cmax in Beagle dog at 60 mg/kg, po qd measured after 91 days; assay type: ADME, organism-based, Canis lupus familiaris; conditions: in vivo, time 91 day
[17] = Total AUC (0 to 24 hrs) in Beagle dog at 60 mg/kg, po qd measured after 91 days; assay type: ADME, organism-based, Canis lupus familiaris; conditions: in vivo, time 91 day
[18] = Free AUC (0 to 24 hrs) in Beagle dog at 60 mg/kg, po qd measured after 91 days; assay type: ADME, organism-based, Canis lupus familiaris; conditions: in vivo, 2184 h, time 91 day
[19] = Toxicity in Beagle dog assessed as uncoordinated movements at 15 mg/kg, po qd measured after 14 days; assay type: organism-based, Canis lupus familiaris; conditions: in vivo, 336 h, time 14 day
[20] = Toxicity in Beagle dog assessed as splayed limbs at 60 mg/kg, po qd measured after 34 days; assay type: organism-based, Canis lupus familiaris; conditions: in vivo, 816 h, time 34 day
[21] = test system: Hepatitis B virus; experiment: Antiviral activity against HBV infected in human primary hepatocytes assessed as reduction in HBeAg production pre-infected cells with virus followed by inoculum removal and subsequent addition of compounds with replenishment on days 4,7,9,11 and 14 post-infection measured after 16 days; assay type: functional, organism-based; conditions: Hepatocyte, 384 h
[22] = test system: Hepatitis B virus; experiment: Antiviral activity against HBV infected in human primary hepatocytes assessed as reduction in HBV DNA production pre-infected cells with virus followed by inoculum removal and subsequent addition of compounds with replenishment on days 4,7,9,11 and 14 post-infection measured after 16 days; assay type: functional, organism-based; conditions: Hepatocyte, 384 h
[23] = Total Cmax in Beagle dog at 15 mg/kg, po qd measured after 60 days; assay type: ADME, organism-based, Canis lupus familiaris; conditions: in vivo, time 60 day
[24] = Total Cmax in Beagle dog at 45 mg/kg, po qd measured after 60 days; assay type: ADME, organism-based, Canis lupus familiaris; conditions: in vivo, time 60 day
[25] = Free AUC (0 to 24 hrs) in Beagle dog at 45 mg/kg, po qd measured after 60 days; assay type: ADME, organism-based, Canis lupus familiaris; conditions: in vivo, 1440 h, time 60 day
[26] = Toxicity in Beagle dog assessed as splayed limbs at 15 to 45 mg/kg, po qd measured after 60 days; assay type: organism-based, Canis lupus familiaris; conditions: in vivo, 1440 h, dose 15-45 mg/kg, time 60 day
[27] = Toxicity in male Beagle dog assessed as decrease in body weight at 15 to 45 mg/kg, po qd measured for 60 days; assay type: organism-based, Canis lupus familiaris; set-up: scale not given: the % may be the effect or the level left; conditions: in vivo, 1440 h, dose 15-45 mg/kg, time 60 day
[28] = Toxicity in male Beagle dog assessed as fold increase in alanine aminotransferase level at 45 mg/kg, po qd measured for 60 days; assay type: organism-based, Canis lupus familiaris; conditions: in vivo, 1440 h, time 60 day
[29] = Toxicity in female Beagle dog assessed as fold decrease in calcium level at 15 to 45 mg/kg, po qd measured for 60 days; assay type: organism-based, Canis lupus familiaris; set-up: scale not given: the % may be the effect or the level left; conditions: in vivo, 1440 h, dose 15-45 mg/kg, time 60 day
[30] = Toxicity in male Beagle dog assessed as fold decrease in total protein level at 15 mg/kg, po qd measured for 60 days; assay type: organism-based, Canis lupus familiaris; set-up: scale not given: the % may be the effect or the level left; conditions: in vivo, 1440 h, time 60 day

With CC(C)(C)[C@@H]1Cc2c(nc3c(C(F)(F)F)cc(C4CC4)cn23)-c2[nH]c(=O)c(C(=O)O)cc21 the Kp at 24 h [1] was 920.

With COCCCOc1cc2c(nc1OC)-c1cc(=O)c(C(=O)O)cn1[C@H](C(C)C)C2 the EC50 [2] was 1.4 nM, the Stability [3] was “Stable” and the IC50 at 12 min [4] was greater than 25 µM. The IC50 at 12 min [5] was greater than 25 µM, the IC50 at 12 min [6] was greater than 25 µM and the IC50 at 12 min [7] was greater than 25 µM. It also gave a concentration at 24 h [8] of 93 ng/g, a Kp at 24 h [9] of 3.3 and a fCmax [10] of 1740 ng/mL. It also gave a fAUC [11] of 3900 ng·h/mL, a Cmax [12] of 11500 ng/mL and a fCmax [13] of 4270 ng/mL. The fAUC [14] was 11400 ng·h/mL, the AUC at 2184 h [15] was 95200 ng·h/mL and the Cmax [16] was 18700 ng/mL. The AUC at 2184 h [17] was 128 µg·h/mL, the fAUC [18] was 47500 ng·h/mL and the Activity [19] was “Toxic”. The Activity [20] was “Toxic”.

Molecule COc1cc(OC(F)F)c2nc3c(n2c1)C[C@@H](C(C)(C)C)c1cc(C(=O)O)c(=O)[nH]c1-3 has an EC50 [21] of 8.5 nM, an EC50 [22] of 8.5 nM and a Cmax [23] of 13900 ng/mL. The Cmax [24] was 17800 ng/mL, the fAUC [25] was 3100 ng·h/mL and the Activity [26] was “Non-Toxic”. For the same molecule, the Activity [27] was less than 15%, the “fold change (FC)” value [28] was less than 2 and the Activity [29] was less than 10%. The Activity [30] was less than 20%.
